Assay results: PMC8703884, “Synthesis and Biological Evaluation of S-, O- and Se-Containing Dispirooxindoles” (Molecules, 2021)
Entries after “also recorded” stand apart in the source; their conditions may differ. Like-named read-outs stand apart in the source and are kept apart here.

Experiments:
[1] = tested on: A549 human lung adenocarcinoma epithelial cell line; test: MTT cytotoxicity test, A549; format: cell-based; conditions: 72 h incubation
[2] = MTT cytotoxicity test, Hek293T; format: cell-based; conditions: human, 72 h incubation
[3] = tested on: HCT116^+/+ human colon cancer cells (p53 positive); test: MTT cytotoxicity test, HCT116 p53+/+; conditions: for CC50: Homo sapiens, HCT-116, read-out: CC50, HCT^+/+
Source text: (§1) The used models included human prostate cancer cell lines LNCaP and PC3, breast cancer cell line (MCF-7), human colon cancer cells (HCT116^+/+, p53 positive, p53^+/+ and HCT116^−/−, p53 negative, p53^−/−), human lung adenocarcinoma epithelial cell line (A549), SV40-transformed normal human lung fibroblast cells (VA13), as well as human embryonic kidney 293 cells (Hek293) stably expressing SV40 large T antigen (Hek293T). The cytotoxicity of the evaluated molecules was properly assessed using a MTT assay based on the modified approach reported by Ferrari and colleagues.
(§2) To further elucidate the dominant mode of action, we used HCT116^+/+ and HCT116^−/− cells by analogy with the paper published by Shangary and colleagues. This isogenic cell line is commonly applied to investigate the p53/MDM2-dependent mode of action.
(§3) MTT test. The MTT assay was carried out according to [35] with few modifications; 3000 Cells (for HEK293T, A549 and MCF7cell lines) or 4000 cells (for VA13 cell line) were seeded in each well of a 96-well plate. […] Assays were performed in triplicates. […] The MTT solution was then discarded and 140 µL of DMSO was added. The plates were swayed on a shaker (60 rpm) to solubilize the formazan. […] The analysis of cytotoxicity and the estimation of IC50 values were carried out with the built-in functions in the GraphPad Prism program (GraphPad Software, Inc., San Diego, CA) P53 activation.

[4] = tested on: HCT116^−/− human colon cancer cells (p53 negative); test: MTT cytotoxicity test, HCT116 p53-/-; conditions: HCT-116, read-out: CC50, HCT^−/−
Source text: as §1, §2, §3

[5] = tested on: LNCaP human prostate cancer cell line; test: MTT cytotoxicity test, LNCaP; format: cell-based; conditions: for CC50: Homo sapiens, LNCaP, read-out: CC50, LNCaP
[6] = tested on: PC3 human prostate cancer cell line; test: MTT cytotoxicity test, PC3; format: cell-based; conditions: Homo sapiens
[7] = tested on: MCF7 breast cancer cell line; test: MTT cytotoxicity test, MCF7; format: cell-based; conditions: Homo sapiens, 72 h incubation
Description: (§4) MTT test. […] Assays were performed in triplicates.

[8] = MTT cytotoxicity test, VA13; format: cell-based; conditions: human, VA13 SV40-transformed normal lung fibroblast cells, 72 h incubation
Description: as §4

[9] = ratio of CC50 values of the cell line pair

For `CN1CC2(NC(=S)N(c3ccccc3)C2=O)C2(C1)C(=O)Nc1ccc(Cl)cc12` (stereo not shown) [Compound 4x, 5″-Chloro-1′-methyl-1-phenyl-2-thioxodispiro[imidazolidine-4,3′-pyrrolidine-4′,3″-indoline]-2″,5-dione], the CC50 [1] was > 100 µM, the CC50 at 72 h [2] was > 100 µM and the CC50 [3] was > 100 µM. For the same compound, the CC50 [4] was > 100 µM, the CC50 ([5]; MTT test) was > 100 µM and the CC50 [6] was > 100 µM. It also gave a melting point of 268 to 269 °C.

`COc1cc([C@@H]2c3cc4c(cc3[C@@H](O[C@@H]3O[C@@H]5CO[C@@H](C)O[C@H]5[C@H](O)[C@H]3O)[C@H]3COC(=O)[C@H]23)OCO4)cc(OC)c1O` [Etoposide, reference compound] showed a CC50 [1] of 0.3 ± 0.1 µM, a CC50 [7] of 2.6 ± 0.9 µM and a CC50 at 72 h [2] of 0.3 ± 0.1 µM. For the same compound, the CC50 [3] was 0.43 ± 0.12 µM, the “selectivity S against HCT116^+/+ over HCT116^−/−” value [3, 9] was 1.97 and the CC50 [4] was 0.85 ± 0.22 µM.

For `CCOc1ccc(N2C(=O)NC3(CN(C)CC34C(=O)Nc3ccc(Cl)cc34)C2=O)cc1` (stereo not shown) [Compound 9h, 5″-Chloro-1-(4-ethoxyphenyl)-1′-methyldispiro[imidazolidine-4,3′-pyrrolidine-4′,3″-indoline]-2,2″,5-trione], the melting point was 273 to 274 °C.

With `CN1CC2(NC(=[Se])N(c3ccc(F)c(Cl)c3)C2=O)C2(C1)C(=O)Nc1ccc(Cl)cc12` (stereo not shown) [Compound 6r, 5″-Chloro-1-(3-chloro-4-fluorophenyl)-1′-methyl-2-selenoxodispiro[imidazolidine-4,3′-pyrrolidine-4′,3″-indoline]-2″,5-dione] the CC50 [1] was 26.5 ± 5.4 µM, the CC50 at 72 h [2] was 11.9 ± 0.9 µM and the CC50 [5] was 11.8 ± 1.5 µM. The “CC50, LNCaP” value ([5]; MTT test) was “good activity”, the CC50 [6] was > 50 µM and the melting point was 193 to 194 °C (dec.).

With `CN1CC2(NC(=S)N(CCCN3CCOCC3)C2=O)C2(C1)C(=O)Nc1ccc(Cl)cc12` (stereo not shown) [Compound 4v, 5″-Chloro-1′-methyl-1-(3-morpholinopropyl)-2-thioxodispiro[imidazolidine-4,3′-pyrrolidine-4′,3″-indoline]-2″,5-dione] the CC50 [1] was > 100 µM, the CC50 at 72 h [2] was 103 ± 27.7 µM and the CC50 [3] was > 100 µM. The CC50 [4] was > 100 µM, the CC50 ([5]; MTT test) was > 100 µM and the CC50 [6] was > 100 µM. It also gave a melting point of 224 to 225 °C.

With `CN1CC2(NC(=S)N(c3ccc(F)cc3)C2=O)C2(C1)C(=O)Nc1ccc(Cl)cc12` (stereo not shown) [Compound 4n, 5″-Chloro-1′-methyl-1-(4-fluorophenyl)-2-thioxodispiro[imidazolidine-4,3′-pyrrolidine-4′,3″-indoline]-2″,5-dione] the CC50 [1] was > 100 µM, the CC50 at 72 h [2] was 53 ± 9.5 µM and the CC50 [3] was > 100 µM. For the same compound, the CC50 [4] was > 100 µM, the CC50 ([5]; MTT test) was > 100 µM and the CC50 [6] was > 100 µM. For the same compound, the melting point was 273 to 274 °C.

Work on `COc1ccc(N2C(=O)C3(CN(C)CC34C(=O)Nc3ccc(Cl)cc34)NC2=[Se])cc1` (stereo not shown) [Compound 6f, 5″-Chloro-1-(4-methoxyphenyl)-1′-methyl-2-selenoxodispiro[imidazolidine-4,3′-pyrrolidine-4′,3″-indoline]-2″,5-dione] yielded a CC50 [1] of 15.8 ± 1.5 µM, a CC50 [7] of 20.4 ± 3.6 µM and a CC50 at 72 h [8] of 12.5 ± 1.5 µM. The CC50 at 72 h [2] was 14 ± 1.5 µM and the melting point was 284 to 285 °C (dec.).

Work on `COc1ccc(N2C(=O)[C@@]3(CN(C)C[C@@]34C(=O)Nc3ccc(Cl)cc34)NC2=S)cc1` (racemic) [Compound 4f, 5″-Cchloro-1′-methyl-1-(4-methoxyphenyl)-2-thioxodispiro[imidazolidine-4,3′-pyrrolidine-4′,3″-indoline]-2″,5-dione] yielded a CC50 [1] of 2.8 ± 0.4 µM, a CC50 [7] of 2.3 ± 0.5 µM and a CC50 at 72 h [8] of 2.3 ± 0.4 µM. For the same compound, the CC50 at 72 h [2] was 1.1 ± 0.1 µM, the CC50 [3] was 1.95 ± 0.43 µM and the CC50 [4] was 2.35 ± 0.95 µM. For the same compound, the CC50 ([5]; MTT test) was 4.5 ± 0.32 µM, the “selectivity on LNCaP cells over PC3 cells” value ([5]; MTT test) was “selective; also recorded: moderate selectivity” and the “selectivity index S for LNCaP/PC3 cells” value [5, 9] was 2.8. The CC50 [6] was 12.6 ± 2.3 µM.
